Measurements reported in the NIST ThermoML archive (doi:10.1021/je8007759).

Assay: xn = mol fraction of the nth substance listed

CC1CCC(=O)O1 (stereo not given) [γ-valerolactone] + O=C=O
mass density [kg/m3], Fluid (supercritical or subcritical phases), Pycnometric method
Conditions | 308.2 K | 313.2 K
7520 kPa, x1 = 0.1 | 928 | –
7560 kPa, x1 = 0.05 | 838 | –
7630 kPa, x1 = 0.01 | 665 | –
7630 kPa, x1 = 0.05 | 842 | –
7640 kPa, x1 = 0.025 | 781 | –
7650 kPa, x1 = 0.01 | 669 | –
7670 kPa, x1 = 0.01 | 673 | –
7670 kPa, x1 = 0.1 | 932 | –
7690 kPa, x1 = 0.01 | 677 | –
7710 kPa, x1 = 0.05 | 845 | –
7710 kPa, x1 = 0.15 | 979 | –
7720 kPa, x1 = 0.01 | 681 | –
7720 kPa, x1 = 0.025 | 786 | –
7750 kPa, x1 = 0.01 | 685 | –
7790 kPa, x1 = 0.01 | 690 | –
7810 kPa, x1 = 0.1 | 935 | –
7820 kPa, x1 = 0.025 | 792 | –
7830 kPa, x1 = 0.01 | 694 | –
7850 kPa, x1 = 0.05 | 850 | –
7870 kPa, x1 = 0.01 | 698 | –
7910 kPa, x1 = 0.01 | 703 | –
7930 kPa, x1 = 0.025 | 798 | –
7970 kPa, x1 = 0.01 | 710 | –
8050 kPa, x1 = 0.01 | 717 | –
8060 kPa, x1 = 0.025 | 804 | –
8110 kPa, x1 = 0.05 | 855 | –
8150 kPa, x1 = 0.01 | 724 | –
8170 kPa, x1 = 0.025 | 809 | –
8200 kPa, x1 = 0.15 | – | 962
8230 kPa, x1 = 0.15 | 982 | –
8300 kPa, x1 = 0.01 | 734 | 547
8310 kPa, x1 = 0.01 | – | 557
8320 kPa, x1 = 0.01 | – | 561
8330 kPa, x1 = 0.01 | – | 565
8340 kPa, x1 = 0.01 | – | 568
8340 kPa, x1 = 0.05 | – | 809
8340 kPa, x1 = 0.1 | 942 | –
8350 kPa, x1 = 0.01 | – | 572
8350 kPa, x1 = 0.025 | 815 | –
8370 kPa, x1 = 0.01 | – | 576
8370 kPa, x1 = 0.025 | – | 726
8380 kPa, x1 = 0.01 | – | 581
8380 kPa, x1 = 0.1 | – | 913
8390 kPa, x1 = 0.01 | – | 589
8400 kPa, x1 = 0.05 | 862 | –
8410 kPa, x1 = 0.01 | – | 592
8410 kPa, x1 = 0.025 | – | 730
8420 kPa, x1 = 0.01 | – | 596
8430 kPa, x1 = 0.01 | – | 602
8440 kPa, x1 = 0.01 | – | 606
8450 kPa, x1 = 0.025 | – | 736
8460 kPa, x1 = 0.01 | 744 | 609
8460 kPa, x1 = 0.05 | – | 814
8470 kPa, x1 = 0.01 | – | 612
8480 kPa, x1 = 0.01 | – | 616
8500 kPa, x1 = 0.01 | – | 619
8510 kPa, x1 = 0.025 | – | 740
8520 kPa, x1 = 0.01 | – | 623
8520 kPa, x1 = 0.1 | – | 916
8530 kPa, x1 = 0.01 | – | 627
8530 kPa, x1 = 0.025 | 822 | –
8550 kPa, x1 = 0.025 | – | 745
8560 kPa, x1 = 0.01 | – | 630
8580 kPa, x1 = 0.01 | – | 634
8580 kPa, x1 = 0.15 | – | 965
8600 kPa, x1 = 0.01 | – | 638
8620 kPa, x1 = 0.025 | – | 750
8630 kPa, x1 = 0.01 | – | 641
8650 kPa, x1 = 0.01 | – | 645
8670 kPa, x1 = 0.01 | 754 | –
8670 kPa, x1 = 0.05 | – | 820
8680 kPa, x1 = 0.01 | – | 649
8680 kPa, x1 = 0.1 | 946 | –
8700 kPa, x1 = 0.025 | 827 | 755
8720 kPa, x1 = 0.01 | – | 653
8750 kPa, x1 = 0.01 | – | 657
8750 kPa, x1 = 0.05 | 869 | –
8760 kPa, x1 = 0.1 | – | 920
8780 kPa, x1 = 0.01 | – | 661
8780 kPa, x1 = 0.025 | – | 760
8810 kPa, x1 = 0.01 | – | 665
8830 kPa, x1 = 0.15 | 985 | –
8850 kPa, x1 = 0.01 | – | 669
8880 kPa, x1 = 0.025 | – | 765
8880 kPa, x1 = 0.05 | – | 826
8890 kPa, x1 = 0.01 | – | 673
8910 kPa, x1 = 0.01 | 765 | –
8940 kPa, x1 = 0.01 | – | 677
8940 kPa, x1 = 0.025 | 833 | –
8960 kPa, x1 = 0.025 | – | 771
8990 kPa, x1 = 0.01 | – | 681
9000 kPa, x1 = 0.1 | – | 923
9040 kPa, x1 = 0.01 | – | 686
9060 kPa, x1 = 0.025 | – | 775
9070 kPa, x1 = 0.15 | – | 969
9100 kPa, x1 = 0.01 | – | 690
9140 kPa, x1 = 0.05 | 875 | –
9150 kPa, x1 = 0.01 | – | 694
9180 kPa, x1 = 0.01 | 775 | –
9180 kPa, x1 = 0.025 | 840 | 781
9180 kPa, x1 = 0.05 | – | 835
9200 kPa, x1 = 0.01 | – | 698
9280 kPa, x1 = 0.01 | – | 703
9280 kPa, x1 = 0.1 | – | 926
9310 kPa, x1 = 0.025 | – | 786
9340 kPa, x1 = 0.01 | – | 708
9380 kPa, x1 = 0.1 | 953 | –
9400 kPa, x1 = 0.15 | 988 | –
9410 kPa, x1 = 0.025 | 845 | –
9430 kPa, x1 = 0.01 | – | 712
9440 kPa, x1 = 0.05 | – | 841
9450 kPa, x1 = 0.025 | – | 792
9500 kPa, x1 = 0.01 | 787 | 717
9510 kPa, x1 = 0.05 | 881 | –
9550 kPa, x1 = 0.1 | – | 929
9590 kPa, x1 = 0.01 | – | 721
9590 kPa, x1 = 0.025 | – | 798
9670 kPa, x1 = 0.15 | – | 972
9680 kPa, x1 = 0.01 | – | 727
9700 kPa, x1 = 0.025 | 852 | –
9710 kPa, x1 = 0.05 | – | 847
9780 kPa, x1 = 0.025 | – | 803
9880 kPa, x1 = 0.01 | – | 736
9880 kPa, x1 = 0.1 | – | 932
9890 kPa, x1 = 0.01 | 798 | –
9970 kPa, x1 = 0.025 | – | 810
9980 kPa, x1 = 0.15 | 991 | –
10000 kPa, x1 = 0.1 | 958 | –
10030 kPa, x1 = 0.05 | – | 852
10120 kPa, x1 = 0.01 | – | 746
10180 kPa, x1 = 0.025 | – | 815
10180 kPa, x1 = 0.1 | – | 936
10310 kPa, x1 = 0.15 | – | 976
10350 kPa, x1 = 0.01 | 810 | –
10370 kPa, x1 = 0.1 | – | 938
10390 kPa, x1 = 0.01 | – | 755
10390 kPa, x1 = 0.05 | – | 859
10400 kPa, x1 = 0.025 | – | 821
10540 kPa, x1 = 0.1 | – | 939
10620 kPa, x1 = 0.15 | – | 978
10630 kPa, x1 = 0.025 | – | 827
10680 kPa, x1 = 0.01 | – | 767
10720 kPa, x1 = 0.15 | 995 | –
10750 kPa, x1 = 0.05 | – | 865
11040 kPa, x1 = 0.1 | 967 | –
11360 kPa, x1 = 0.15 | 999 | –
11550 kPa, x1 = 0.1 | 970 | –
11980 kPa, x1 = 0.15 | 1002 | –
12070 kPa, x1 = 0.1 | 974 | –
12550 kPa, x1 = 0.1 | 978 | –
12950 kPa, x1 = 0.15 | 1006 | –
13110 kPa, x1 = 0.1 | 981 | –
13620 kPa, x1 = 0.15 | 1009 | –
13640 kPa, x1 = 0.1 | 984 | –
14250 kPa, x1 = 0.1 | 989 | –
14410 kPa, x1 = 0.15 | 1013 | –
14770 kPa, x1 = 0.1 | 992 | –
15180 kPa, x1 = 0.15 | 1016 | –
16060 kPa, x1 = 0.15 | 1020 | –
16850 kPa, x1 = 0.15 | 1023 | –

308.2 K, Liquid, high pressure variable cell
Conditions | mass density [kg/m3]
x1 = 0.01 | 663
x1 = 0.025 | 777
x1 = 0.05 | 834
x1 = 0.1 | 920
x1 = 0.15 | 972
